Read-outs that look alike come from different tables or passages of the source.
Tests used:
[1] = test system: men who suffer from ED; details: ED of psychogenic or organic etiology, clinical studies; cited from earlier work
[2] = test system: PDE-III; details: cited from earlier work
[3] = cited from earlier work; for average steady-state plasma concentration: oral
[4] = test system: trabeculae from the right ventricular free wall of explanted human hearts; test: Peak contractile force of isolated human right ventricular trabeculae in muscle bath; format: cell-based; details: 37° C., 1.0 Hz field stimulation, increasing concentrations
Experimental: Explanted human hearts were obtained from transplant recipients (n=7) and from nonfailing donor hearts (n=1). After excision, hearts were placed immediately into ice cold Tyrode's solution and aerated with 95% O2 and 5% CO2. Trabeculae between 1-3 mm in width and 7-10 mm in length were excised from the right ventricular free wall. Subsequently trabeculae were mounted in a multi-chamber muscle bath in oxygenated Tyrode's solution at 37° C. The trabeculae were placed under 1 gram of resting tension and a field stimulation of 1.0 Hz. […] Peak contractile forces were recorded at 10 minute intervals for a total of 1½ hours. Following experimentation, trabeculae were frozen in liquid N2.

[5] = target: T1, PDE-III isolated from human platelets (Homo sapiens, UniProt Q14432); test: PDE-III inhibition, [3H]cAMP substrate; format: biochemical; details: triplicate at three concentrations over log scale, semi-quantitative
T1 construct: PDE-III isolated from human platelets; from tissue; host or cells: human platelets
T1 sequence (Q14432 whole entry): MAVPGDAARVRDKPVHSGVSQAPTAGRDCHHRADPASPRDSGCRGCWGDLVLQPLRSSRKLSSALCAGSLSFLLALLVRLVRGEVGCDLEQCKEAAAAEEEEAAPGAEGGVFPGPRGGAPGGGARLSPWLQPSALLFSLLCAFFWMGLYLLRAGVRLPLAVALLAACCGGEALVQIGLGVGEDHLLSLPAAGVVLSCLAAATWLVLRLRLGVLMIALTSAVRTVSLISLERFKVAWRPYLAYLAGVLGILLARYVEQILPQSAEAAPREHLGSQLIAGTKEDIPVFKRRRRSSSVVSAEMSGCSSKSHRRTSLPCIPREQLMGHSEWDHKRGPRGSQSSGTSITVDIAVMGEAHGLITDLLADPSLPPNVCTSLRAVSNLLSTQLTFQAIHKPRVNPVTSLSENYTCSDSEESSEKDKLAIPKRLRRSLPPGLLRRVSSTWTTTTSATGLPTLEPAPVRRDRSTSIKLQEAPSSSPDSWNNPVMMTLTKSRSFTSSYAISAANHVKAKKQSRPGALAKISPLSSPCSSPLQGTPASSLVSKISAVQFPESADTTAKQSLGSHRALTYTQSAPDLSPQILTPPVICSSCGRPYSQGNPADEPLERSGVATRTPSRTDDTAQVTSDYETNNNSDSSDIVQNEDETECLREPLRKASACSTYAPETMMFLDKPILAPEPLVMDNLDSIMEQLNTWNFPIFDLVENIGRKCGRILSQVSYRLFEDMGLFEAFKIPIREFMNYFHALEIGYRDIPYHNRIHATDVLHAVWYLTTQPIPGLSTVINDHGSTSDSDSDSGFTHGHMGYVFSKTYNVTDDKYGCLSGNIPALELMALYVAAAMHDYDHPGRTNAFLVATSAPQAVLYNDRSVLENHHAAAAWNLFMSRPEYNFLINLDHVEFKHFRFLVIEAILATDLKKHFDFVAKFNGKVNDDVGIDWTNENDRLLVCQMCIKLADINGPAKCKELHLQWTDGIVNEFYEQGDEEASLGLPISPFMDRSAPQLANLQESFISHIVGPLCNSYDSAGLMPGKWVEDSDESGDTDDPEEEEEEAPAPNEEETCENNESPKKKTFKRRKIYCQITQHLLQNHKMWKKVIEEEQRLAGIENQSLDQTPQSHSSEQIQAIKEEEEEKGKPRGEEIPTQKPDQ
Experimental: Enoximone Sulfoxide enantiomer was tested for its ability to inhibit the action of PDE-III isolated from human platelets. The substrate was [^3H]cAMP+cAMP, which is converted by PDE-III to […] and then […] can be quantified. Assays were done in triplicate at three different concentrations over log scale, allowing semi-quantitative measurement of IC50.

In the case of `CCCc1nn(C)c2c(=O)[nH]c(-c3cc(S(=O)(=O)N4CCN(C)CC4)ccc3OCC)nc12` [sildenafil, 5-[2-ethoxy-5-(4-methylpiperazin-1-ylsulphonyl)phenyl]-1-methyl-3-n-propyl-6,7-dihydro-1H-pyrazolo[4,3-d]pyrimidin-7-one], the “men with improved sexual function” value [1] is given as “about 70%” and the “inhibition of PDE-III” value [2] is given as “negligible inhibition”.
In the case of `CSc1ccc(C(=O)c2[nH]c(=O)[nH]c2C)cc1` [Enoximone, 1,3-Dihydro-4-methyl-5-[4-(methylthio)benzoyl]-2H-imidazol-2-one], the “average steady-state plasma concentration” value ([3]; 50 mg every 8 hours) is given as 115 ± 40 ng/mL, the “average steady-state plasma concentration” value ([3]; 100 mg every 8 hours) is given as 190 ± 78 ng/mL and the mean clearance ([3]; patients with cardiac failure) is given as “about 10 ml/min/kg”. The Bioavailability ([3]; single oral dose of 3 mg/kg) was “about 55%”.
For `Cc1[nH]c(=O)[nH]c1C(=O)c1ccc([S@@+](C)[O-])cc1` [(R)-(+)-enantiomer of enoximone sulfoxide, 1,3-Dihydro-4-methyl-5-[(4-methylsulfinyl)-benzoyl]-2H-imidazol-2-one hydrate], the “peak contractile force (net, T=0 baseline subtracted)” value (from here on “peak contractile force”) [4] was 550 mg of tension and the IC50 [5] was 107 µM.
In the case of `Cc1[nH]c(=O)[nH]c1C(=O)c1ccc([S+](C)[O-])cc1.O` (stereo not shown) [Sulfoxide Metabolite 27996, 1,3-Dihydro-4-methyl-5-[(4-methylsulfinyl)-benzoyl]-2H-imidazol-2-one hydrate], the “peak contractile force” value [4] is reported as 175 mg of tension.
With `CC(C)NCC(O)c1ccc(O)c(O)c1` (stereo not shown) [Isoproterenol] the “peak contractile force” value [4] was > 1000 mg of tension.

Source: patent US20060030611A1, “Enoximone sulfoxide enantiomers and their use in the treatment of PDE-III mediated diseases” (Myogen, Inc., priority 2004, published 2006)
